These results are taken from patent US11180474B2 (BRISTOL-MYERS SQUIBB COMPANY, priority 2016, dated 2021).

The target of experiment [1] is T1, human TLR8 (Homo sapiens, UniProt Q9NR97).
T1 construct: host or cells: HEK-Blue cells
T1 sequence (Q9NR97 27-1041): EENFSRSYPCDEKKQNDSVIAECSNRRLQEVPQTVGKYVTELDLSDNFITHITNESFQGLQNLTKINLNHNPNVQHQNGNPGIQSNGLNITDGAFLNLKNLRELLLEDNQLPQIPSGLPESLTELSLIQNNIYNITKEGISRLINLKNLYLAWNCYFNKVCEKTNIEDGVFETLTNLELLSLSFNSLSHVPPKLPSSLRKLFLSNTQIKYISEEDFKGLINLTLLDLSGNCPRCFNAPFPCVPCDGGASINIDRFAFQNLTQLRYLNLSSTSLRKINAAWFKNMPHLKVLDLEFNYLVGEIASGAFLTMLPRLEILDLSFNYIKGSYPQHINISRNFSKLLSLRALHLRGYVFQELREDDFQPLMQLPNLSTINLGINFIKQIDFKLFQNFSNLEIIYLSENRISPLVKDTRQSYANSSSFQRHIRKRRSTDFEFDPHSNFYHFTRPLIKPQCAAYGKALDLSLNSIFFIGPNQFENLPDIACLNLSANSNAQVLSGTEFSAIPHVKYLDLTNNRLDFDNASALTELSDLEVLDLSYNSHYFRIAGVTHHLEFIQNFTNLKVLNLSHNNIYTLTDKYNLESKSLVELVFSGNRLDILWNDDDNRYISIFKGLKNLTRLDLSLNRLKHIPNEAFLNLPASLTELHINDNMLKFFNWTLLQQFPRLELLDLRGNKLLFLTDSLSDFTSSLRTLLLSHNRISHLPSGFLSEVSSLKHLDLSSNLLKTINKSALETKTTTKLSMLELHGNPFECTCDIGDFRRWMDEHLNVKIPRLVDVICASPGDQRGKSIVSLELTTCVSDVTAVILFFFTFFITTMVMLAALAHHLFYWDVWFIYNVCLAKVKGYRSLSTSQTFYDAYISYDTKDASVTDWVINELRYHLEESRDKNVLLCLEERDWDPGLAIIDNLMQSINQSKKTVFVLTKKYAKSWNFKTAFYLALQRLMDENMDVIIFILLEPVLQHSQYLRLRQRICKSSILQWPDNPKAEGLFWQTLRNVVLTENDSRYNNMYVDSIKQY
Briefly: TLR8 inhibition reporter assay (HEK-Blue cells, SEAP reporter, R848 stimulation). The following applies: HEK-Blue cells overexpressing human TLR8, R848 15.9 μM. The class given is cell-based. The method in brief: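 Dose-response testing from 0.05 nM to 50 μM final was done on reporter cells for 22 hours at 37° C. Secreted SEAP was then detected, and inhibition was calculated as percent reduction of the agonist-plus-DMSO signal compared with wells given a known inhibitor.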
(In a reporter assay the amount or activity of a reporter protein is the signal.)

Experiment [2] addresses T2, human TLR9 (Homo sapiens, UniProt Q9NR96).
T2 construct: host or cells: HEK-Blue cells
T2 sequence (Q9NR96 26-1032): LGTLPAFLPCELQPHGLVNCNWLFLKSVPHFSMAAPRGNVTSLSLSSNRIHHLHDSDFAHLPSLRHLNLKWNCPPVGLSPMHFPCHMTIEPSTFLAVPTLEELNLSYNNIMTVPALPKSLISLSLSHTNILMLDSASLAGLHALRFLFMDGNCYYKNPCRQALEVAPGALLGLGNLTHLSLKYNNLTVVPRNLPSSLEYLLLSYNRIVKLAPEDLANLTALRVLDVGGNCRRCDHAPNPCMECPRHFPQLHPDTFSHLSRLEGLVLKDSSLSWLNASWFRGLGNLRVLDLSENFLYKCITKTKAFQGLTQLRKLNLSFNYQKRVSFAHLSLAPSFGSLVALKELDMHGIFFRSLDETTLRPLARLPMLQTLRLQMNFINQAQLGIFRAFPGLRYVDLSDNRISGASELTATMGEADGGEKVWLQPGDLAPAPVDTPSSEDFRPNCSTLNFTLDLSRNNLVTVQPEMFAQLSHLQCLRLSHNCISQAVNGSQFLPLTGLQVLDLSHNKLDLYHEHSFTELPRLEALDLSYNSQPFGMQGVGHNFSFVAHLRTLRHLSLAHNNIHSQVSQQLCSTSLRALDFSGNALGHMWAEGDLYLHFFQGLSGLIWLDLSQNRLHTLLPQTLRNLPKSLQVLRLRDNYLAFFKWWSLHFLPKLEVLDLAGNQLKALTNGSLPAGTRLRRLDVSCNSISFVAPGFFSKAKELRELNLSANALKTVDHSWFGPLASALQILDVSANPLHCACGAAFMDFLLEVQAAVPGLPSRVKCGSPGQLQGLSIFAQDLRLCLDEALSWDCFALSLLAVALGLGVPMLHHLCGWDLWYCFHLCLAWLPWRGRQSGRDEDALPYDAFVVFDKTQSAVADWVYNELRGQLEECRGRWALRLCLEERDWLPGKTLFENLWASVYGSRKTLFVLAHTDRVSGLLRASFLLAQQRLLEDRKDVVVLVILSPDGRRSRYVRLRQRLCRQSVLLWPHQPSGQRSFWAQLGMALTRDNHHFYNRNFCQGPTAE
Description: TLR9 inhibition reporter assay (HEK-Blue cells, SEAP reporter, ODN2006 stimulation). The following applies: HEK-Blue cells overexpressing human TLR9, ODN2006 5 nM. The class given is cell-based. In short, it runs like this:
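Screening used HEK-Blue cells overexpressing one human TLR (7, 8 or 9) and an IFN-β minimal promoter–NF-κB/AP-1 SEAP construct. Stimulation lasted 22 h at 37 °C with receptor-specific agonist: gardiquimod, R848 or ODN2006 at 7.5 μM, 15.9 μM and 5 nM.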

`COc1ccc(-c2[nH]c3ccc(C4CCN(C5CCN(CC6CC6)CC5)CC4)cc3c2C)cc1OC` [Example 3, 5-(1′-(cyclopropylmethyl)-[1,4′-bipiperidin]-4-yl)-2-(3,4-dimethoxyphenyl)-3-methyl-1H-indole]: the IC50 (as a rule, the concentration needed to halve the response being measured) in experiment [1] was 216 nM; in experiment [2] it was 117 nM.
Regarding `COc1ccc(-c2[nH]c3ccc(C4CCN(C(C)CO)CC4)cc3c2C)cc1OC` (stereo not shown) [Example 43, 2-(4-(2-(3,4-dimethoxyphenyl)-3-methyl-1H-indol-5-yl)piperidin-1-yl)propan-1-ol], the 50% inhibitory concentration (IC50) in experiment [1] was 926 nM; in experiment [2], 2760 nM.
`CCN1CCC(N2CCC(c3ccc4[nH]c(-c5ccc(OC)c(OC)c5)c(C)c4c3)CC2)CC1` [Example 44, 2-(3,4-dimethoxyphenyl)-5-(1′-ethyl-[1,4′-bipiperidin]-4-yl)-3-methyl-1H-indole]: the IC50 was found to be 926 nM in experiment [1] and 301 nM in experiment [2].
As to `COc1ccc(-c2[nH]c3ccc(C4CCN(C5CC(C)(C)NC(C)(C)C5)CC4)cc3c2C)cc1OC` [Example 48, 2-(3,4-dimethoxyphenyl)-3-methyl-5-(2′,2′,6′,6′-tetramethyl-[1,4′-bipiperidin]-4-yl)-1H-indole], the results for the IC50 in experiment [1] and in experiment [2] were 616 nM and 435 nM, respectively.
Turning to `COc1ccc(-c2[nH]c3ccc(C4CCN(CC5CCCCN5C)CC4)cc3c2C)cc1OC` (stereo not shown) [Example 49, 2-(3,4-dimethoxyphenyl)-3-methyl-5-(1-((1-methylpiperidin-2-yl)methyl)piperidin-4-yl)-1H-indole], the values for the IC50 in experiment [1] and in experiment [2] were 260 nM and 550 nM, respectively.
On to `COc1ccc(-c2[nH]c3ccc(C4CCN(C5CCN(CCC(F)(F)F)CC5)CC4)cc3c2C)cc1OC` [Example 50, 2-(3,4-dimethoxyphenyl)-3-methyl-5-(1′-(3,3,3-trifluoropropyl)-[1,4′-bipiperidin]-4-yl)-1H-indole], for which the IC50 in experiment [1] came out at 510 nM; in experiment [2], 442 nM.
The corresponding values for `COc1ccc(-c2[nH]c3ccc(C4CCN(C5CCN(CC(O)CO)CC5)CC4)cc3c2C)cc1OC` (stereo not shown) [Example 52, 3-(4-(2-(3,4-dimethoxyphenyl)-3-methyl-1H-indol-5-yl)-[1,4′-bipiperidin]-1′-yl)propane-1,2-diol] are 333 nM and 268 nM.
The corresponding values for `CCCCCN1CCC(N2CCC(c3ccc4[nH]c(-c5ccc(OC)c(OC)c5)c(C)c4c3)CC2)CC1` [Example 55, 2-(3,4-dimethoxyphenyl)-3-methyl-5-(1′-pentyl-[1,4′-bipiperidin]-4-yl)-1H-indole] are 293 nM and 72 nM.
Regarding `COc1ccc(-c2[nH]c3ccc(C4CCN(C5CCN(CC6CCCCC6)CC5)CC4)cc3c2C)cc1OC` [Example 58, 5-(1′-(cyclohexylmethyl)-[1,4′-bipiperidin]-4-yl)-2-(3,4-dimethoxyphenyl)-3-methyl-1H-indole], the IC50 was 258 nM in experiment [1] and 86 nM in experiment [2].
Taken in the same sequence, the figures for `COc1ccc(-c2[nH]c3ccc(C4CCN(C5CCN(Cc6cncn6C)CC5)CC4)cc3c2C)cc1OC` [Example 59, 2-(3,4-dimethoxyphenyl)-3-methyl-5-(1′-((1-methyl-1H-imidazol-5-yl)methyl)-[1,4′-bipiperidin]-4-yl)-1H-indole] were 187 nM and 180 nM.
In the case of `COc1ccc(-c2[nH]c3ccc(C4CCN(C5CCN(C6CCCC6)CC5)CC4)cc3c2C)cc1OC` [Example 62, 5-(1′-cyclopentyl-[1,4′-bipiperidin]-4-yl)-2-(3,4-dimethoxyphenyl)-3-methyl-1H-indole], the values for the 50% inhibitory concentration (IC50) in experiment [1] and in experiment [2] were 217 nM and 196 nM, respectively.
The corresponding values for `COc1ccc(-c2[nH]c3ccc(C4CCN(C5CCN(Cc6cccs6)CC5)CC4)cc3c2C)cc1OC` [Example 64, 2-(3,4-dimethoxyphenyl)-3-methyl-5-(1′-(thiophen-2-ylmethyl)-[1,4′-bipiperidin]-4-yl)-1H-indole] are 195 nM and 112 nM.
On to `COc1ccc(-c2[nH]c3ccc(C4CCN(C5CCN(CC6CCCC6)CC5)CC4)cc3c2C)cc1OC` [Example 65, 5-(1′-(cyclopentylmethyl)-[1,4′-bipiperidin]-4-yl)-2-(3,4-dimethoxyphenyl)-3-methyl-1H-indole], for which the 50% inhibitory concentration (IC50) in experiment [1] was 41400 nM; in experiment [2], 112 nM.
Turning to `COc1ccc(-c2[nH]c3ccc(C4CCN(C5CCN(C6CCCCC6)CC5)CC4)cc3c2C)cc1OC` [Example 68, 5-(1′-cyclohexyl-[1,4′-bipiperidin]-4-yl)-2-(3,4-dimethoxyphenyl)-3-methyl-1H-indole], the IC50 in experiment [1] turned out to be 182 nM; in experiment [2], 88 nM.
Regarding `COc1ccc(-c2[nH]c3ccc(C4CCN(C5CCN(CC(C)(C)CO)CC5)CC4)cc3c2C)cc1OC` [Example 69, 3-(4-(2-(3,4-dimethoxyphenyl)-3-methyl-1H-indol-5-yl)-[1,4′-bipiperidin]-1′-yl)-2,2-dimethylpropan-1-ol], the IC50 in experiment [1] was 317 nM; in experiment [2], 174 nM.
With `COc1ccc(-c2[nH]c3ccc(C4CCN(C5CCN(Cc6nccs6)CC5)CC4)cc3c2C)cc1OC` [Example 72, 2-((4-(2-(3,4-dimethoxyphenyl)-3-methyl-1H-indol-5-yl)-[1,4′-bipiperidin]-1′-yl)methyl)thiazole], the IC50 in experiment [1] worked out at 312 nM; in experiment [2] it was 356 nM.
On to `COc1ccc(-c2[nH]c3ccc(C4CCN(C5CCN(CC6CCOC6)CC5)CC4)cc3c2C)cc1OC` (stereo not shown) [Example 74], for which the IC50 in experiment [1] was 102 nM; in experiment [2] it was 62 nM.
`COc1ccc(-c2[nH]c3ccc(C4CCN(C5CCN(CC(C)(C)C)CC5)CC4)cc3c2C)cc1OC` [Example 75, 2-(3,4-dimethoxyphenyl)-3-methyl-5-(1′-neopentyl-[1,4′-bipiperidin]-4-yl)-1H-indole]: the IC50 in experiment [1] was found to be 325 nM; in experiment [2], 169 nM.
On to `COc1ccc(-c2[nH]c3ccc(C4CCN(C5CCN(Cc6ccco6)CC5)CC4)cc3c2C)cc1OC` [Example 76, 2-(3,4-dimethoxyphenyl)-5-(1′-(furan-2-ylmethyl)-[1,4′-bipiperidin]-4-yl)-3-methyl-1H-indole], for which the IC50 in experiment [1] is 238 nM; in experiment [2], 172 nM.
Consider `COc1ccc(-c2[nH]c3ccc(C4CCN(C5CCN(Cc6cccn6C)CC5)CC4)cc3c2C)cc1OC` [Example 78, 2-(3,4-dimethoxyphenyl)-3-methyl-5-(1′-((1-methyl-1H-pyrrol-2-yl)methyl)-[1,4′-bipiperidin]-4-yl)-1H-indole], for which the IC50 in experiment [1] is 143 nM; in experiment [2], 130 nM.
